Test results published in US20240269135A1, “METHODS OF TREATING BREAST CANCER” (ASTRAZENECA AB, priority 2021, published 2024).

Tests used:
[1] = OlympiA safety analysis: adverse events, blood transfusions; format: in vivo
Procedure: Efficacy analyses were based on the intention-to-treat (ITT) population. Survival functions were estimated by Kaplan-Meier method. The stratified Cox proportional-hazards model was used to estimate the hazard ratio and confidence intervals, the comparison of survival between treatment arms was tested by stratified log-rank test. […] Safety was assessed in the population who received at least one dose of study medication.
Adverse events of special interest included pneumonitis, radiation pneumonitis, myelodysplastic syndrome (MDS)/AML, and new primary malignancy other than AML/MDS.

[2] = tested on: metastatic HER2-negative breast cancer patients with gBRCA-P/LP variants; settings: 45% received capecitabine as comparator; cited from earlier work
[3] = olaparib group, safety analysis set
[4] = safety analysis set, olaparib n=911
[5] = safety analysis set, olaparib n=911, listed as olaparib
[6] = safety analysis set, 300 mg bd, N = 911
[7] = treatment month: >=1-2 months, 300 mg bd, N = 911
[8] = treatment month: >=2-3 months, 300 mg bd, N = 911
[9] = treatment month: >=3-4 months, 300 mg bd, N = 911
[10] = treatment month: >=4-5 months, 300 mg bd, N = 911
[11] = treatment month: >=5-6 months, 300 mg bd, N = 911
[12] = treatment month: >=6-7 months, 300 mg bd, N = 911
[13] = treatment month: >=7-8 months, 300 mg bd, N = 911
[14] = treatment month: >=8-9 months, 300 mg bd, N = 911
[15] = treatment month: >=9-10 months, 300 mg bd, N = 911
[16] = treatment month: >=10-11 months, 300 mg bd, N = 911
[17] = treatment month: >=11 months, 300 mg bd, N = 911
[18] = treatment month: Up to month 1, 300 mg bd, N = 911

O=C(c1cc(Cc2n[nH]c(=O)c3ccccc23)ccc1F)N1CCN(C(=O)C2CC2)CC1 [Olaparib, 4-[(3-{[4-(cyclopropane-carbonyl)piperazine-1-yl]carbonyl}-4-fluorophenyl)methyl]-2H-phthalazin-1-one]
anemia leading to discontinuation of study drug [1, 3]: 1.8%
fatigue leading to discontinuation of study drug [1, 3]: 1.3%
nausea leading to discontinuation of study drug [1, 3]: 2.0%
neutrophil count decreased leading to discontinuation of study drug [1, 3]: 1%
Number of patients with only 1 transfusion ([1]; safety analysis set, olaparib N=911): 4.1%
Patients with at least one blood transfusion ([1]; safety analysis set, olaparib N=911, up to 30 days after last dose): 5.8%
Neutrophil count decreased (neutropenia), Grade ≥3 [1, 4]: (4.8) %
Neutrophil count decreased, Grade ≥3 [1, 4]: 44 no.
White blood cell count decreased (leukopenia), Grade ≥3 [1, 4]: (3.0) %
White blood cell count decreased, Grade ≥3 [1, 4]: 27 no.
Anemia, Grade ≥3 [1, 5]: 8.7%
Fatigue, Grade ≥3 [1, 5]: 1.8%
Neutrophil count decreased (neutropenia), Grade ≥3 [1, 5]: 4.8%
White blood cell count decreased (leukopenia), Grade ≥3 [1, 5]: 3.0%
AE leading to permanent discontinuation of treatment: Abdominal pain upper [1, 6]: 1 (0.1) no. of patients (%)
AE leading to permanent discontinuation of treatment: Anaemia [1, 6]: 16 (1.8) no. of patients (%)
AE leading to permanent discontinuation of treatment: Arthralgia [1, 6]: 1 (0.1) no. of patients (%)
AE leading to permanent discontinuation of treatment: Breast cancer [1, 6]: 1 (0.1) no. of patients (%)
AE leading to permanent discontinuation of treatment: Decreased appetite [1, 6]: 2 (0.2) no. of patients (%)
AE leading to permanent discontinuation of treatment: Diarrhoea [1, 6]: 3 (0.3) no. of patients (%)
AE leading to permanent discontinuation of treatment: Dizziness [1, 6]: 2 (0.2) no. of patients (%)
AE leading to permanent discontinuation of treatment: Drug hypersensitivity [1, 6]: 3 (0.3) no. of patients (%)
AE leading to permanent discontinuation of treatment: Fatigue [1, 6]: 12 (1.3) no. of patients (%)
AE leading to permanent discontinuation of treatment: Headache [1, 6]: 7 (0.8) no. of patients (%)
AE leading to permanent discontinuation of treatment: Nausea [1, 6]: 18 (2.0) no. of patients (%)
AE leading to permanent discontinuation of treatment: Neutrophil count decreased [1, 6]: 9 (1.0) no. of patients (%)
AE leading to permanent discontinuation of treatment: Pruritus [1, 6]: 3 (0.3) no. of patients (%)
AE leading to permanent discontinuation of treatment: Vomiting [1, 6]: 7 (0.8) no. of patients (%)
AE leading to permanent discontinuation of treatment: White blood cell count decreased [1, 6]: 6 (0.7) no. of patients (%)
Any AE leading to permanent discontinuation [1, 6]: 90 (9.9) no. of patients (%)
lymphopenia, grade 3 or higher ([1]; safety analysis, olaparib-group): 1.2%
Blood transfusions over time, Total no. of transfusions [1, 7]: 2
Blood transfusions over time, no. of patients (%) [1, 7]: 2 (0.2) no. of patients (%)
Blood transfusions over time, Total no. of transfusions [1, 8]: 22
Blood transfusions over time, no. of patients (%) [1, 8]: 21 (2.3) no. of patients (%)
Blood transfusions over time, Total no. of transfusions [1, 9]: 10
Blood transfusions over time, no. of patients (%) [1, 9]: 8 (0.9) no. of patients (%)
Blood transfusions over time, Total no. of transfusions [1, 10]: 5
Blood transfusions over time, no. of patients (%) [1, 10]: 5 (0.5) no. of patients (%)
Blood transfusions over time, Total no. of transfusions [1, 11]: 8
Blood transfusions over time, no. of patients (%) [1, 11]: 7 (0.8) no. of patients (%)
Blood transfusions over time, Total no. of transfusions [1, 12]: 4
Blood transfusions over time, no. of patients (%) [1, 12]: 4 (0.4) no. of patients (%)
Blood transfusions over time, Total no. of transfusions [1, 13]: 8
Blood transfusions over time, no. of patients (%) [1, 13]: 8 (0.9) no. of patients (%)
Blood transfusions over time, Total no. of transfusions [1, 14]: 3
Blood transfusions over time, no. of patients (%) [1, 14]: 3 (0.3) no. of patients (%)
Blood transfusions over time, Total no. of transfusions [1, 15]: 2
Blood transfusions over time, no. of patients (%) [1, 15]: 2 (0.2) no. of patients (%)
Blood transfusions over time, Total no. of transfusions [1, 16]: 3
Blood transfusions over time, no. of patients (%) [1, 16]: 3 (0.3) no. of patients (%)
Blood transfusions over time, Total no. of transfusions [1, 17]: 5
Blood transfusions over time, no. of patients (%) [1, 17]: 5 (0.5) no. of patients (%)
Blood transfusions over time, Total no. of transfusions [1, 18]: 2
Blood transfusions over time, no. of patients (%) [1, 18]: 2 (0.2) no. of patients (%)
progression-free-survival versus chemotherapy [2]: more effective than chemotherapy
